The structures appear in SMILES notation. Values after ≈ are worked out from the molar mass of the structure shown.

What all share (type): functional
In one test the test system is Ostrinia nubilalis. Put plainly: Insecticidal activity against Ostrinia nubilalis. The conditions noted are these: read-out: LD50 (the source's name).
Test [1] has as its system P388. Put plainly: In vivo antitumor activity against mouse P388 cells at 1 to 3.3 mg/kg relative to control. The conditions noted are these: dose mg/kg 1-3.3.
Another test has as its system KB. Put plainly: Cytotoxicity against human KB cells. The conditions noted are these: for EC50: Homo sapiens, KB, read-out: ED50 (the source's name).
The test system of test [2] is P388. Put plainly: In vivo antitumor activity against mouse P388 cells at 0.25 to 1 mg/kg relative to control. The conditions noted are these: dose mg/kg 0.25-1.
The next test has as its system L1210. Put plainly: In vivo antitumor activity against mouse L1210 cells at 0.25 to 1 mg/kg relative to control. The conditions noted are these: dose mg/kg 0.25-1.
Test [3] relates to PS. Put plainly: In vivo antitumor activity against […] PS cells at 8 to 23 ug/kg relative to control.
Test [4] can be described thus: In vivo antitumor activity against human B1 cells at 4 to 32 ug/kg relative to control.
Test [5] relates to PS. Nature of the test: In vivo antitumor activity against […] PS cells at 1 to 31 ug/kg relative to control.

For the molecule `CO[C@@H]1[C@@H](O)[C@H](C)O[C@@H](O[C@H]2CC[C@@]3(C)[C@H](CC[C@@H]4[C@@H]3CC[C@]3(C)[C@@H](C5=CC(=O)OC5)CC[C@]43O)C2)[C@H]1OC(C)=O`, the LC50 in the test on Ostrinia nubilalis amounted to 192 µg/mL (≈ 333 µM). The term T/C denotes the result in the treated group divided by that in the control group, in per cent. In turn, `C/C=C(\C)C(=O)N[C@@H](c1ccccc1)[C@@H](O)C(=O)O[C@H]1C[C@@]2(O)[C@@H](OC(=O)c3ccccc3)[C@@H]3[C@]4(OC(C)=O)CO[C@@H]4C[C@H](O)[C@@]3(C)C(=O)[C@H](OC(C)=O)C(=C1C)C2(C)C` [CEPHALOMANNINE] displayed a T/C in the test with P388 [1] of 158%. In the test on KB, the EC50 is 0.0038 µg/mL (≈ 0.00457 µM). Take `CO[C@H]1[C@H](O)[C@H](O[C@H]2CC[C@@]3(C)[C@H](CC[C@@H]4[C@@H]3CC[C@]3(C)[C@@H](C5=CC(=O)OC5)CC[C@]43O)C2)O[C@@H](C)[C@@H]1O` [NERIIFOLIN]: the LC50 in the test with Ostrinia nubilalis was determined as 30 µg/mL (≈ 56.1 µM).

As for `COC(=O)C[C@](O)(CCCC(C)(C)O)C(=O)O[C@@H]1C(OC)=C[C@]23CCCN2CCc2cc4c(cc2[C@H]13)OCO4` [OMACETAXINE MEPESUCCINATE], the T/C amounted to 244% in the test with P388 [2] and 123% with L1210. Regarding `C=C1CO[C@](O)(C2OCOC(C3CC(=O)NC(=O)C3)[C@@H]2O)[C@H]1C` (stereo partly specified) [SESBANIMIDE A], the EC50 with KB was found to be 0.0077 µg/mL (≈ 0.0235 µM). In the test on PS [3], this molecule had a T/C of 140%.

As for `COc1cc2cc(c1Cl)N(C)C(=O)C[C@H](OC(=O)[C@H](C)N(C)C(=O)C(C)C)[C@]1(C)O[C@H]1[C@H](C)[C@@H]1C[C@@](O)(NC(=O)O1)[C@H](OC)/C=C/C=C(\C)C2OC` (stereo partly specified) [TREWIASINE], in the test with KB, the ED50 stood at 2 ×10⁻⁴ ug/ml. For the same molecule, the results for the T/C (in test [4]; in the test on PS [5]) were 165% and 126%, respectively.

For the origin of these results see ChEMBL document CHEMBL1151994, “Plant seeds as sources of potential industrial chemicals, pharmaceuticals, and pest control agents” (2009).
